Ends that are not written are not given here.
Tests used:
[1] = rat, in vivo, ip
[2] = molecular target: BttxB (Clostridium botulinum, UniProt P10844); format: biochemical
[3] = tested on: Bttxs; settings: cited from earlier work

Sequence of BttxB (P10844 2-441 limits assumed): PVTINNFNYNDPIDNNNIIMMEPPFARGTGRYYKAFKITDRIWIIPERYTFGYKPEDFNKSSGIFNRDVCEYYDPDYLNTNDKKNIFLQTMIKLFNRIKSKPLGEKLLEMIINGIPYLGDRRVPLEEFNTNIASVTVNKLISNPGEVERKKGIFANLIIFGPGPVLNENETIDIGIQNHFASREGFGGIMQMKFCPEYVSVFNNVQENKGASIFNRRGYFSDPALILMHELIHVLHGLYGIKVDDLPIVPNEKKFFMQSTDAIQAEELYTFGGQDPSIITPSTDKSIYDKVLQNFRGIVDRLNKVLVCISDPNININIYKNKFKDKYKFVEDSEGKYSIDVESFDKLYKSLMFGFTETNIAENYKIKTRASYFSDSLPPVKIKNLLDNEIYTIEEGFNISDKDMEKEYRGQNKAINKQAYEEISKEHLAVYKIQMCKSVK

With `CC(C)C[C@H](NC(=O)CNC(=O)[C@H](C)NC(=O)[C@H](CCCNC(=N)N)NC(=O)[C@H](CO)NC(=O)[C@H](CO)NC(=O)[C@H](CCCNC(=N)N)NC(=O)[C@@H](NC(=O)[C@H](CCCCN)NC(=O)[C@H](C)NC(=O)[C@H](CCCCN)NC(=O)[C@H](C)NC(=O)[C@H](CCCNC(=N)N)NC(=O)[C@@H](NC(=O)[C@H](CCCCN)NC(=O)CNC(=O)CNC(=O)[C@H](CCC(N)=O)NC(=O)[C@H](CCCCN)NC(=O)CNC(=O)[C@H](CCCNC(=N)N)NC(=O)CNC(=O)[C@H](C)N)C(C)C)[C@@H](C)O)C(=O)N[C@@H](CCC(N)=O)C(=O)N[C@@H](Cc1ccccc1)C(=O)N1CCC[C@H]1C(=O)N[C@H](C(=O)NCC(=O)N[C@@H](CCCNC(=N)N)C(=O)N[C@H](C(=O)N[C@@H](Cc1c[nH]cn1)C(=O)N[C@@H](CCCNC(=N)N)C(=O)N[C@@H](CC(C)C)C(=O)N[C@@H](CC(C)C)C(=O)N[C@@H](CCCNC(=N)N)C(=O)N[C@@H](CCCCN)C(=O)NCC(=O)N[C@@H](CC(N)=O)C(=O)N[C@@H](Cc1ccc(O)cc1)C(=O)O)C(C)C)C(C)C` [Buforin I] the “Plateau (time to reach maximal-plateau level)” value [1] was ≤ 40 min, the “time the maximal-plateau level was maintained” value [1] was “up to 4 h” and the “time to reach ½ the absorbed maximal value” [1] was 7.7 min. For the same molecule, the “inhibition of BttxB endoprotease activity (in words)” value [2] was “dose-dependency and competitively inhibits” and the “substrate of BttxB” value [2] was “not to be a substrate”.

In the case of `C[C@H](CS)C(=O)N1CCC[C@H]1C(=O)O` [captopril], the “inhibition of Bttxs (in words)” value [3] is listed as “not effective inhibitors”.

In the case of `CC(C)C[C@H](NP(=O)(O)O[C@@H]1O[C@@H](C)[C@H](O)[C@@H](O)[C@H]1O)C(=O)N[C@@H](Cc1c[nH]c2ccccc12)C(=O)O` [phosphoramidon], the “inhibition of Bttxs (in words)” value [3] is given as “not effective inhibitors”.

With “AlaGlyArgGlyLysGlnGlyGlyLysValArgAlaLysAlaLysThrArgSerSerArgAlaGlyLeuGlnPheProValGlyArgValHisArgLeuLeuArglys [Peptide 36]” the “effectiveness as inhibitor of BttxB activity relative to B-I” value [2] was “about 50%” and the “substrate of BttxB” value [2] was “not substrates”.

With Substance P [reference compound] the “substrate of BttxB” value [2] was “not a substrate”.

In the case of TRSRAKGLQFPGLLVHRKGNY [OSP], the “inhibition of BttxB endoprotease activity (in words)” value [2] is reported as “inhibition”.

In the case of “ThrArgSerSerArgAlaGlyLeuGlnPheProValGlyArgValHisArgLerLeuArgLysGlyAsnTyr [Peptide 24]”, the “effectiveness as inhibitor of BttxB activity relative to B-I” value [2] is reported as “about 25%” and the “substrate of BttxB” value [2] is reported as “not substrates”.
